This is an account of results in patent publication US11179368B2, “Substituted indoline derivatives as dengue viral replication inhibitors” (JANSSEN PHARMACEUTICALS, INC., priority 2017, dated 2021).

One data set relates to DENV-2 16681 strain. The experiment in a line: DENV-2 antiviral assay (eGFP-labeled virus in Vero cells). The class given is cell-based, Dengue virus. The conditions noted are these: for EC50: DENV-2 16681 eGFP, Vero cells, MOI 0.5, 3 days; for SI: SI=CC50/EC50, DENV-2 antiviral assay.
Another data set in a line: in vitro. The conditions noted are these: African green monkey.
For the next data set, the system named is Vero cells. Particulars: African green monkey.
The next data set has as its system DENV-2 strain 16681. Nature of the data set: Tetravalent RT-qPCR assay, serotype 2. The format is cell-based, Dengue virus. The protocol: (§1) The antiviral activity of the compounds of the invention was tested against DENV-1 strain TC974#666 (NCPV), DENV-2 strain 16681, DENV-3 strain H87 (NCPV) and DENV-4 strain H241 (NCPV) in a RT-qPCR assay. Therefore, Vero cells were infected with either DENV-1, or -2, or -3, or -4 in the presence or absence of test compounds. At day 3 post-infection, the cells were lysed and cell lysates were used to prepare cDNA of both a viral target (the 3′UTR of DENV; Table 2) and a cellular reference gene (1-actin, Table 2). Subsequently, a duplex real time PCR was performed on a Lightcycler480 instrument. The generated Cp value is inversely proportional to the amount of RNA expression of these targets. Inhibition of DENV replication by a test compound results in a shift of Cp's for the 3′UTR gene. On the other hand, if a test compound is toxic to the cells, a similar effect on β-actin expression will be observed. The comparative ΔΔCp method is used to calculate EC50, which is based on the relative gene expression of the target gene (3′UTR) normalized with the cellular housekeeping gene (β-actin). In addition, CC50 values are determined based on the Cp values acquired for the housekeeping gene β-actin.
(§2) The culture medium consisted of minimal essential medium supplemented with 2% of heat-inactivated fetal calf serum, 0.04% gentamycin (50 mg/mL) and 2 mM of L-glutamine. Vero cells, obtained from ECACC, were suspended in culture medium and 75 μL/well was added in 96-well plates (10000 cells/well), which already contain the antiviral compounds. […] In addition, each plate contains wells which are assigned as virus controls (containing cells and virus in the absence of compound) and cell controls (containing cells in the absence of virus and compound). Once the cells were added in the plates, the plates were incubated in a fully humidified incubator (37° C., 5% CO2) until the next day. Dengue viruses serotype-1, 2, 3 and 4 were diluted in order to obtain a Cp of ˜22-24 in the assay. Therefore, 25 μL of virus suspension was added to all the wells containing test compound and to the wells assigned as virus control. In parallel, 25 μL of culture medium was added to the cell controls. Next, the plates were incubated for 3 days in a fully humidified incubator (37° C., 5% CO2). After 3 days, the supernatant was removed from the wells and the cells were washed twice with ice-cold PBS (˜100 μL). The cell pellets within the 96-well plates were stored at −80° C. for at least 1 day. Next, RNA was extracted using the Cells-to-CT™ lysis kit, according to the manufacturer's guideline (Life Technologies). The cell lysates can be stored at −80° C. or immediately used in the reverse transcription step.
(§3) In preparation of the reverse transcription step, mix A (table 3A) was prepared and 7.57 μL/well was dispensed in a 96-well plate. After addition of 5 μL of the cell lysates, a five minute denaturation step at 75° C. was performed (table 3B). Afterwards, 7.43 μL of mix B was added (table 3C) and the reverse transcription step was initiated (table 3D) to generate cDNA.
(§4) Finally, a RT-qPCR mix was prepared, mix C (table 4A), and 22.02 μL/well was dispensed in 96-well LightCycler qPCR plates to which 3 μL of cDNA was added and the qPCR was performed according to the conditions in table 4B on a LightCycler 480.
(§5) Using the LightCycler software and an in-house LIMS system, dose response curves for each compound were calculated and the half maximal effective concentration (EC50) and the half maximal cytotoxic concentration (CC50) were determined (Tables 5-8).

For another data set, the system named is DENV-3 strain H87. The experiment in a line: Tetravalent RT-qPCR assay, serotype 3. The format is cell-based, Dengue virus. The protocol: as §1, §2, §3, §4, §5
The subject of the next data set is DENV-4 strain H241. Nature of the data set: Tetravalent RT-qPCR assay, serotype 4. The format is cell-based, Dengue virus. Here is the method: as §1, §2, §3, §4, §5
For orientation: In qPCR the cycle at which signal appears reflects the starting amount.

A further data set has as its system DENV-1 strain TC974#666. The experiment in a line: Tetravalent RT-qPCR assay, serotype 1. The format is cell-based, Dengue virus. The protocol: as §1, §2, §3, §4, §5
[1] abbreviates: Dengue virus, DENV2, Vero, 72 h.

Consider `COc1cc(NC(C(=O)N2CCc3ccc(OC(F)(F)F)cc32)c2ccc(F)cc2OCCO)cc(S(C)(=O)=O)c1` (single isomer, unassigned) [Compound 3A], for which, in the data set on DENV-2 16681 strain, the EC50 (usually the midpoint of the concentration-response curve) is 570 nM and the SI was determined as 19. The compound further displayed a CC50 in “in vitro” of 11000 nM.
Turning to `COc1cc(NC(C(=O)N2CCc3ccc(OC(F)(F)F)cc32)c2ccc(Cl)cc2OCCO)cc(S(C)(=O)=O)c1` (racemic) [Compound 6, 2-(4-chloro-2-(2-hydroxyethoxy)phenyl)-2-((3-methoxy-5-(methylsulfonyl)phenyl)amino)-1-(6-(trifluoromethoxy)indolin-1-yl)ethanone], the EC50 in the data set with DENV-2 16681 strain (setting [1]) worked out at 0.43 nM. In the data set on DENV-2 16681 strain, this compound yielded an SI of 7070. Moreover, the CC50 in the data set “in vitro” stood at 3600 nM.
The like results for `COc1cc(NC(C(=O)N2CCc3ccc(OC(F)(F)F)cc32)c2ccc(F)cc2OCCO)cc(S(C)(=O)=O)c1` (racemic) [Compound 3, 2-(4-fluoro-2-(2-hydroxyethoxy)phenyl)-2-((3-methoxy-5-(methylsulfonyl)phenyl)amino)-1-(6-(trifluoromethoxy)indolin-1-yl)ethanone] were, in that order, 0.74 nM, 10700 and 7900 nM.
Turning to `COc1cc(NC(C(=O)N2CCc3ccc(C(F)(F)F)cc32)c2ccc(Cl)cc2OCCO)cc(S(C)(=O)=O)c1` (single isomer, unassigned) [Compound 4B], in the data set with DENV-2 16681 strain, the concentration giving a half-maximal response (EC50) worked out at 16 nM and the SI was 693. This compound returned a CC50 in the data set with Vero cells of 11000 nM.
Regarding `COc1cc(NC(C(=O)N2CCc3cc(OC)c(C(F)(F)F)cc32)c2ccc(F)cc2OCCO)cc(S(C)(=O)=O)c1` (racemic) [Compound 2, 2-(4-fluoro-2-(2-hydroxyethoxy)phenyl)-2-((3-methoxy-5-(methylsulfonyl)phenyl)amino)-1-(5-methoxy-6-(trifluoromethyl)indolin-1-yl)ethanone], the EC50 in the data set with DENV-2 16681 strain (setting [1]) stood at 1 nM. In addition, the SI in the data set on DENV-2 16681 strain was determined as 13700. In the data set “in vitro”, this compound returned a CC50 of 12000 nM.
Consider `COc1cc(NC(C(=O)N2CCc3cc(OC)c(C(F)(F)F)cc32)c2ccc(F)cc2OCCO)cc(S(C)(=O)=O)c1` (single isomer, unassigned) [Compound 2B], for which, in the data set on DENV-2 16681 strain, the concentration giving a half-maximal response (EC50) was 170 nM and the SI amounted to 105. This compound returned a CC50 in the data set with Vero cells of 18000 nM.
`COc1cc(NC(C(=O)N2CCc3ccc(C(F)(F)F)cc32)c2ccc(Cl)cc2OCCO)cc(S(C)(=O)=O)c1` (racemic) [Compound 4, 2-(4-chloro-2-(2-hydroxyethoxy)phenyl)-2-((3-methoxy-5-(methylsulfonyl)phenyl)amino)-1-(6-(trifluoromethyl)indolin-1-yl)ethanone] showed an EC50 in the data set on DENV-2 16681 strain (setting [1]) of 0.66 nM. Further, in the data set on DENV-2 16681 strain, the SI is 11600. Further, in the data set “in vitro”, the CC50 stood at 7700 nM.
In the data set on DENV-2 16681 strain (setting [1]), `COc1cc(NC(C(=O)N2CCc3ccc(C(F)(F)F)cc32)c2ccc(Cl)cc2OCCCC(=O)O)cc(S(C)(=O)=O)c1` (racemic) [Compound 7, 4-(5-chloro-2-(1-((3-methoxy-5-(methylsulfonyl)phenyl)amino)-2-oxo-2-(6-(trifluoromethyl)indolin-1-yl)ethyl)phenoxy)butanoic acid] returned an EC50 of 0.58 nM. In the data set with DENV-2 16681 strain, this compound registered an SI of 21800. For the same compound, in the data set “in vitro”, the CC50 came out at 13000 nM.
In the data set on DENV-2 16681 strain, `COc1cc(NC(C(=O)N2CCc3cc(OC)c(C(F)(F)F)cc32)c2ccc(Cl)cc2OCCCC(=O)O)cc(S(C)(=O)=O)c1` (single isomer, unassigned) [Compound 8A] yielded an EC50 of 95 nM and an SI of 126. In addition, the CC50 in the data set “in vitro” amounted to 12000 nM.
As to `COc1cc(NC(C(=O)N2CCc3cc(OC)c(C(F)(F)F)cc32)c2ccc(Cl)cc2OCCCC(=O)O)cc(S(C)(=O)=O)c1` (racemic) [Compound 8, 4-(5-chloro-2-(1-((3-methoxy-5-(methylsulfonyl)phenyl)amino)-2-(5-methoxy-6-(trifluoromethyl)indolin-1-yl)-2-oxoethyl)phenoxy)butanoic acid], in the data set on DENV-2 16681 strain (setting [1]), the EC50 was determined as 1.9 nM. In the data set with DENV-2 16681 strain, the SI is 7460. The CC50 in “in vitro” stood at 14000 nM.
For `COc1cc(NC(C(=O)N2CCc3ccc(OC(F)(F)F)cc32)c2ccc(Cl)cc2OCCCC(=O)O)cc(S(C)(=O)=O)c1` (racemic) [Compound 9, 4-(5-chloro-2-(1-((3-methoxy-5-(methylsulfonyl)phenyl)amino)-2-oxo-2-(6-(trifluoromethoxy)indolin-1-yl)ethyl)phenoxy)butanoic acid] the same measures were 0.31 nM, 40200 and 12000 nM.
Consider `COc1cc(NC(C(=O)N2CCc3ccc(C(F)(F)F)cc32)c2ccc(Cl)cc2OCCCC(=O)O)cc(S(C)(=O)=O)c1` (single isomer, unassigned) [Compound 7A], for which, in the data set with DENV-2 16681 strain, the EC50 stood at 69 nM and the SI came out at 165. Also, the CC50 in “in vitro” was found to be 11000 nM.
The like results for `COc1cc(NC(C(=O)N2CCc3cc(OC)c(C(F)(F)F)cc32)c2ccc(Cl)cc2OCCO)cc(S(C)(=O)=O)c1` (single isomer, unassigned) [Compound 5A] were, in that order, 76 nM, 210 and 16000 nM.
Take `COc1cc(NC(C(=O)N2CCc3ccc(C(F)(F)F)cc32)c2ccc(F)cc2OCCO)cc(S(C)(=O)=O)c1` (racemic) [Compound 1, 2-(4-fluoro-2-(2-hydroxyethoxy)phenyl)-2-((3-methoxy-5-(methylsulfonyl)phenyl)amino)-1-(6-(trifluoromethyl)indolin-1-yl)ethan-1-one]: the EC50 with DENV-2 16681 strain (setting [1]) turned out to be 3.2 nM. In the data set on DENV-2 16681 strain, this compound displayed an SI of 4397. The compound also gave a CC50 in “in vitro” of 14000 nM.
`COc1cc(NC(C(=O)N2CCc3ccc(OC(F)(F)F)cc32)c2ccc(Cl)cc2OCCCC(=O)O)cc(S(C)(=O)=O)c1` (single isomer, unassigned) [Compound 9A]: in the data set with DENV-2 16681 strain, the EC50 came to 120 nM and the SI was 93. The CC50 in “in vitro” came to 12000 nM.
Turning to `COc1cc(NC(C(=O)N2CCc3cc(OC)c(C(F)(F)F)cc32)c2ccc(F)cc2OCCO)cc(S(C)(=O)=O)c1` (single isomer, unassigned) [Compound 2A], the 50% effective concentration (EC50) in the data set with DENV-2 16681 strain came out at 0.93 nM; in the data set on DENV-2 strain 16681 (Dengue virus, DENV2, 72 h, RT-qPCR serotype 2 16681, Vero cells, day 3), 1.3 nM; with DENV-3 strain H87 (Dengue virus, DENV3, 72 h, RT-qPCR serotype 3 H87, Vero cells, day 3), 20 nM; in the data set on DENV-4 strain H241 (Dengue virus, DENV4, 72 h, RT-qPCR serotype 4 H241, Vero cells, day 3, read-out: EC50), 100 nM; in the data set on DENV-1 strain TC974#666 (Dengue virus, DENV1, 72 h, RT-qPCR serotype 1 TC974#666, Vero cells, day 3), 4.6 nM. Besides, the SI was 16400 in the data set on DENV-2 16681 strain; 4910 in the data set with DENV-2 strain 16681 (RT-qPCR serotype 2 16681); over 157 in the data set on DENV-3 strain H87 (RT-qPCR serotype 3 H87); 35 in the data set on DENV-4 strain H241 (RT-qPCR serotype 4 H241); over 981 with DENV-1 strain TC974#666 (RT-qPCR serotype 1 TC974#666). The compound further yielded a CC50 in “in vitro” of 9600 nM.
With `COc1cc(NC(C(=O)N2CCc3cc(OC)c(C(F)(F)F)cc32)c2ccc(Cl)cc2OCCO)cc(S(C)(=O)=O)c1` (racemic) [Compound 5, 2-(4-chloro-2-(2-hydroxyethoxy)phenyl)-2-((3-methoxy-5-(methylsulfonyl)phenyl)amino)-1-(5-methoxy-6-(trifluoromethyl)indolin-1-yl)ethanone], the EC50 in the data set on DENV-2 16681 strain (setting [1]) was 0.7 nM. The same compound had an SI in the data set on DENV-2 16681 strain of 15700. In “in vitro”, the CC50 turned out to be 11000 nM.
